The term IC50 denotes the concentration needed to halve the response being measured. Higher therefore signals weaker potency.

Bounds are passed on as bounds.

T1 sequence (P13569 whole entry): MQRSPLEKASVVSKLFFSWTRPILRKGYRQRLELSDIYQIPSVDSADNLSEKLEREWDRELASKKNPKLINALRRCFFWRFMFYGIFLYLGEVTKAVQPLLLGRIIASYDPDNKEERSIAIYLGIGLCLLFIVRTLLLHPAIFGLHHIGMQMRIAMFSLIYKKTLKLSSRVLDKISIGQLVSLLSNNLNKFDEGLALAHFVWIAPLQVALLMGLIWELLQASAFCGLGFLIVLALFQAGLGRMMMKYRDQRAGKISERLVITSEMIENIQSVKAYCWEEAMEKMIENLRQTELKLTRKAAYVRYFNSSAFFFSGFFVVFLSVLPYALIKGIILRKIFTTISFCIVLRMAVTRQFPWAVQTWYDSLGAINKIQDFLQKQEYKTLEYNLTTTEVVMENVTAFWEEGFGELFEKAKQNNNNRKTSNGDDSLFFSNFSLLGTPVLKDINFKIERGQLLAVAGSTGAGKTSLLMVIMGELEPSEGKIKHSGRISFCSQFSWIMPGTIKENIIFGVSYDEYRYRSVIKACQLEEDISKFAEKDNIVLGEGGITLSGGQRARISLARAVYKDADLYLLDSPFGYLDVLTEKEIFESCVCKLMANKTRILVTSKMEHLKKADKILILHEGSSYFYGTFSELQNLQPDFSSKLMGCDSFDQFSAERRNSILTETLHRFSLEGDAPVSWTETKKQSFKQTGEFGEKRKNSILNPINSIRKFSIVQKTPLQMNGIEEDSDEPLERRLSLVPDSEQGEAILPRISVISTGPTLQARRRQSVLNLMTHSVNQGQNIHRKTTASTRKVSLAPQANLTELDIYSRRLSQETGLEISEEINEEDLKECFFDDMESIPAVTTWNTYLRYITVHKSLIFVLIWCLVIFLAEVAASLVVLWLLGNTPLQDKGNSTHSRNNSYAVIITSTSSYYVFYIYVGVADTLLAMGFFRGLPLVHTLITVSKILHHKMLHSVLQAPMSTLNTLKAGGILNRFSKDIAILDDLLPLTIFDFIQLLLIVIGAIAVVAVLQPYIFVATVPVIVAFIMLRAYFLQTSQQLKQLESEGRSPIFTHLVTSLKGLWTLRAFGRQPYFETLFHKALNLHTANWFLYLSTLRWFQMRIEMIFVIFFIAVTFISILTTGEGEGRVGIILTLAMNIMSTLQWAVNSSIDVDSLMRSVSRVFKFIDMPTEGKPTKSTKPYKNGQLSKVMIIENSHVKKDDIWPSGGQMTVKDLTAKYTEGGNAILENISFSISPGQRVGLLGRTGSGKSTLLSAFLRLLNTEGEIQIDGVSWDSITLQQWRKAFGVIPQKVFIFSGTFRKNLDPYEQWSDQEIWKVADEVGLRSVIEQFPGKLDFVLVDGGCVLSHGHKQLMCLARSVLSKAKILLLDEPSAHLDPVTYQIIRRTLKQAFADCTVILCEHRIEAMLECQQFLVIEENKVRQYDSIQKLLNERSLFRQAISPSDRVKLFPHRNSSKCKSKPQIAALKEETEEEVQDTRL

The first experiment addresses T1, CFTR in the CHO-CFTR cell line (Homo sapiens, UniProt P13569).
T1 construct: expressed in transfected cells; host or cells: CHO (CHO-CFTR cell line)
Description: CHO-CFTR assay (FLIPR assay, same conditions as T84 assay). In kind it is cell-based. The following applies: average of at least 2 runs unless marked n = 1.
As for `Cc1noc(C)c1CCNC(=O)c1ncn(-c2cc(Cl)c(O)c(Cl)c2)n1` [Compound 74, 1-(3,5-dichloro-4-hydroxyphenyl)-N-(2-(3,5-dimethylisoxazol-4-yl)ethyl)-1H-1,2,4-triazole-3-carboxamide], the IC50 is not below 50 µM.

In the case of `CC(C)(C)CCN(Cc1cccc(OC(F)(F)F)c1)C(=O)c1ncn(-c2cc(Cl)c(O)c(Cl)c2)n1` [Compound 77, 1-(3,5-dichloro-4-hydroxyphenyl)-N-(3,3-dimethylbutyl)-N-(3-(trifluoromethoxy)benzyl)-1H-1,2,4-triazole-3-carboxamide], the IC50 is not below 50 µM.

`CC(C)(C)CCN(Cc1cccc(C(F)(F)F)c1)C(=O)c1ncn(-c2cc(Cl)c(O)c(Cl)c2)n1` [Compound 79, 1-(3,5-dichloro-4-hydroxyphenyl)-N-(3,3-dimethylbutyl)-N-(3-(trifluoromethyl)benzyl)-1H-1,2,4-triazole-3-carboxamide]: the IC50 is not below 50 µM.

The molecule `O=C(c1ncn(-c2cc(Cl)c(O)c(Cl)c2)n1)N(Cc1ccccc1)Cc1cccc(OC(F)(F)F)c1` [Compound 84, N-benzyl-1-(3,5-dichloro-4-hydroxyphenyl)-N-(3-(trifluoromethoxy)benzyl)-1H-1,2,4-triazole-3-carboxamide] gave a 50% inhibitory concentration (IC50) not below 50 µM.

Consider `O=C(c1ncn(-c2cc(Cl)c(O)c(Cl)c2)n1)N(Cc1ccccc1)Cc1cccc(C(F)(F)F)c1` [Compound 85, N-benzyl-1-(3,5-dichloro-4-hydroxyphenyl)-N-(3-(trifluoromethyl)benzyl)-1H-1,2,4-triazole-3-carboxamide], for which the half-inhibitory concentration (IC50) is not below 50 µM.

Molecule `C=CCN(Cc1ccc(C(C)C)cc1)C(=O)c1ncn(-c2cc(Cl)c(O)c(Cl)c2)n1` [Compound 101, N-allyl-1-(3,5-dichloro-4-hydroxyphenyl)-N-(4-isopropylbenzyl)-1H-1,2,4-triazole-3-carboxamide] displayed an IC50 not below 50 µM.

`COCCOCCOCCOCCN(Cc1ccc(Cl)c(Cl)c1)C(=O)c1ncn(-c2cc(Cl)c(O)c(Cl)c2)n1` [Compound 111, 1-(3,5-dichloro-4-hydroxyphenyl)-N-(3,4-dichlorobenzyl)-N-(2,5,8,11-tetraoxatridecan-13-yl)-1H-1,2,4-triazole-3-carboxamide] showed an IC50 not below 50 µM.

In turn, `COCCOCCOCCN(Cc1cccc(OC(F)(F)F)c1)C(=O)c1ncn(-c2cc(Cl)c(O)c(Cl)c2)n1` [Compound 113, 1-(3,5-dichloro-4-hydroxyphenyl)-N-(2-(2-(2-methoxyethoxy)ethoxy)ethyl)-N-(3-(trifluoromethoxy)benzyl)-1H-1,2,4-triazole-3-carboxamide] returned an IC50 not below 50 µM.

`COCCOCCOCCOCCN(Cc1cccc(OC(F)(F)F)c1)C(=O)c1ncn(-c2cc(Cl)c(O)c(Cl)c2)n1` [Compound 115, 1-(3,5-dichloro-4-hydroxyphenyl)-N-(2,5,8,11-tetraoxatridecan-13-yl)-N-(3-(trifluoromethoxy)benzyl)-1H-1,2,4-triazole-3-carboxamide] displayed an IC50 not below 50 µM.

Consider `CC(C)(C)c1ccc(CN(CCOCCOCCOCCOCCOCCOCc2ccccc2)C(=O)c2ncn(-c3cc(Cl)c(O)c(Cl)c3)n2)cc1` [Compound 116, N-(4-tert-butylbenzyl)-1-(3,5-dichloro-4-hydroxyphenyl)-N-(1-phenyl-2,5,8,11,14,17-hexaoxanonadecan-19-yl)-1H-1,2,4-triazole-3-carboxamide], for which the IC50 was not below 50 µM.

For the molecule `COCCOCCOCCOCCOCCOCCOCCOCCN(Cc1ccc(C(C)(C)C)cc1)C(=O)c1ncn(-c2cc(Cl)c(O)c(Cl)c2)n1` [Compound 117, N-(4-tert-butylbenzyl)-1-(3,5-dichloro-4-hydroxyphenyl)-N-(2,5,8,11,14,17,20,23-octaoxapentacosan-25-yl)-1H-1,2,4-triazole-3-carboxamide], the IC50 was not below 50 µM.

The molecule `COCCOCCOCCOCCOCCN(Cc1ccc(C(C)(C)C)cc1)C(=O)c1ncn(-c2cc(Cl)c(O)c(Cl)c2)n1` [Compound 118, N-(4-tert-butylbenzyl)-1-(3,5-dichloro-4-hydroxyphenyl)-N-(2,5,8,11,14-pentaoxahexadecan-16-yl)-1H-1,2,4-triazole-3-carboxamide] displayed an IC50 not below 50 µM.

For the molecule `COCCOCCOCCOCCN(Cc1ccc(C(C)(C)C)cc1)C(=O)c1ncn(-c2cc(Cl)c(O)c(Cl)c2)n1` [Compound 120, N-(4-tert-butylbenzyl)-1-(3,5-dichloro-4-hydroxyphenyl)-N-(2,5,8,11-tetraoxatridecan-13-yl)-1H-1,2,4-triazole-3-carboxamide], the IC50 is not below 50 µM.

Molecule `COCCOCCOCCOCCOCCOCCOCCOCCON(Cc1ccc(Oc2ccccc2)cc1)C(=O)c1ncn(-c2cc(Cl)c(O)c(Cl)c2)n1` [Compound 121, N-(2,5,8,11,14,17,20,23-octaoxapentacosan-25-yloxy)-1-(3,5-dichloro-4-hydroxyphenyl)-N-(4-phenoxybenzyl)-1H-1,2,4-triazole-3-carboxamide] yielded an IC50 not below 50 µM.

Turning to `COCCOCCOCCOCCON(Cc1ccc(Oc2ccccc2)cc1)C(=O)c1ncn(-c2cc(Cl)c(O)c(Cl)c2)n1` [Compound 122, N-(2,5,8,11-tetraoxatridecan-13-yloxy)-1-(3,5-dichloro-4-hydroxyphenyl)-N-(4-phenoxybenzyl)-1H-1,2,4-triazole-3-carboxamide], the IC50 was not below 50 µM.

In the case of `COCCOCCOCCON(Cc1ccc(Oc2ccccc2)cc1)C(=O)c1ncn(-c2cc(Cl)c(O)c(Cl)c2)n1` [Compound 123, 1-(3,5-dichloro-4-hydroxyphenyl)-N-(2-(2-(2-methoxyethoxy)ethoxy)ethoxy)-N-(4-phenoxybenzyl)-1H-1,2,4-triazole-3-carboxamide], the IC50 was not below 50 µM.

For `CON(Cc1ccc(C(C)C)cc1)C(=O)c1ncn(-c2cc(Cl)c(O)c(Cl)c2)n1` [Compound 128, 1-(3,5-dichloro-4-hydroxyphenyl)-N-(4-isopropylbenzyl)-N-methoxy-1H-1,2,4-triazole-3-carboxamide], the IC50 is not below 50 µM.

The test system of another experiment is cholera toxin (CTX)-induced net fluid secretion in small intestine loops.
Assay: not given
The arrangement: species or system mice (CD1 strain). The following applies: mouse, in vivo.
Take `O=C(NC(c1ccccc1)c1ccccc1)c1ncn(-c2cc(Cl)c(O)c(Cl)c2)n1` [Compound 2, N-benzhydryl-1-(3,5-dichloro-4-hydroxyphenyl)-1H-1,2,4-triazole-3-carboxamide]: the “% inhibition @ 100 μg dose (closed loop % inhibition)” value (shortened to “% inhibition @ 100 μg dose”) was 42.9%.

`O=C(NCCC(c1ccccc1)c1ccccc1)c1ncn(-c2cc(Cl)c(O)c(Cl)c2)n1` [Compound 31, 1-(3,5-dichloro-4-hydroxyphenyl)-N-(3,3-diphenylpropyl)-1H-1,2,4-triazole-3-carboxamide]: the “% inhibition @ 100 μg dose” value turned out to be 45.1%.

With `O=C(NCc1ccc(Cl)c(Cl)c1)c1ncn(-c2cc(Cl)c(O)c(Cl)c2)n1` [Compound 37, 1-(3,5-dichloro-4-hydroxyphenyl)-N-(3,4-dichlorobenzyl)-1H-1,2,4-triazole-3-carboxamide], the “% inhibition @ 100 μg dose” value worked out at 76.9%.

Take `O=C(NCc1ccc(Oc2ccccc2)cc1)c1ncn(-c2cc(Cl)c(O)c(Cl)c2)n1` [Compound 49, 1-(3,5-dichloro-4-hydroxyphenyl)-N-(4-phenoxybenzyl)-1H-1,2,4-triazole-3-carboxamide]: the “% inhibition @ 100 μg dose” value is given as 42.3%.

As for `Oc1c(Cl)cc(-n2cnc(C(O)(c3cc(F)cc(F)c3)c3cc(F)cc(F)c3)n2)cc1Cl` [Compound 52, 4-(3-(bis(3,5-difluorophenyl)(hydroxy)methyl)-1H-1,2,4-triazol-1-yl)-2,6-dichlorophenol], the “% inhibition @ 100 μg dose” value is 55.3%.

These data come from patent publication US20110237528A1, “COMPOSITIONS AND METHODS COMPRISING IMIDAZOLE AND TRIAZOLE DERIVATIVES” (INSTITUTE FOR ONEWORLD HEALTH, priority 2008, published 2011).
